This data set can be described thus: Ultraviolet spectroscopy detection: long-wavelength absorption peak, fluorescence, Stokes shift. The format is physicochemical. The text has this: Electronic absorption spectra for the compounds are shown in FIG. 1, from which it can be seen that, all the compounds having a structure shown in formula VIII, formula IX, formula III, formula IV, formula V, and formula XVII provided according to the present invention show a strong long-wavelength absorption peak between 750 nm and 860 nm, and have an obvious Stokes shift between 37 nm and 41 nm.

`CC1(C)C(/C=C/C2=C(Sc3ccc(C(=O)O)cc3)C(=C/C=C3/N(CCCCS(=O)(=O)O)c4ccc5ccccc5c4C3(C)C)/CCC2)=[N+](CCCCS(=O)(=O)O)c2ccc3ccccc3c21` [Formula IX]: the Fluorescence amounted to 876 nm and the Stokes shift is reported as 39 nm. The Absorption peak (long-wavelength absorption peak) was 837 nm.

The record behind these values is US9821062B2, “Cyanine dye compound and preparation method therefor, and dual-function agent for photodynamic therapy and preparation method therefor” (ZHEJIANG HISUN PHARMACEUTICAL CO., LTD., priority 2012, dated 2017).
